Type in all cases: cell-based
Experiment [1] has as its system PI3Kα wide type cell line SK-BR-3. As to the kind of experiment: Cell Proliferation IC50 Assay (CellTiter-Glo), SK-BR-3. Conditions: Homo sapiens; SK-BR-3 (PI3Kα wild type), 72 hours, CellTiter-Glo; read-out: IC50 (μM) SK-BR-3. A digest of the protocol:
(§1)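 Cells were seeded and left overnight, then exposed to serially diluted compound (200-fold final dilution) for 72 h at 37 °C, 5% CO2. Viability was read by CellTiter-Glo luminescence. Percent inhibition and IC50 were calculated from the signal.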
For orientation: Cellular ATP, detected with luciferase, serves as a proxy for viable cell number.

For experiment [2], the system named is PI3Kα H1047R mutation cell line MDA-MB-453. The experiment in a line: Cell Proliferation IC50 Assay (CellTiter-Glo), MDA-MB-453. Particulars: Homo sapiens, read-out: IC50 (μM) MDA-MB-453. The text has this:
PI3Kα H1047R mutation cell line T-47D and MDA-MB-453, E545K mutation cell line MDA-MB-361 and PI3Kα wide type cell line SK-BR-3 were purchased from Cobioer Biotech (cat. no CBP60397, CBP60386, CBP60383 and CBP60413 respectively). The CellTiter-Glo Direct Cell Proliferation Assay Kit was purchased from Prornega (cat. No. G7573)
For cell proliferation assay in each cell line: • a. Prepare complete medium (R PMI 1640, DMEM or McCoys): Add FBS and appropriate additives according to the information sheet provided by the vendor. Mix gently. • b. Prepare single cell suspension and count the cell numbers and adjust cells to appropriate density. • c. Add 80 μL of cell suspension to 96-well opaque-walled clear bottom plates according to the planned plate layout and place the plates in the CO2 incubator overnight. • d. Prepare intermediate plate: 10 μl of diluted test compounds or staurosporine solution (200×) is added to a 96 deep well plate. Then 390 μl of culture medium without FBS is added to the respective wells. • e. Transfer 20 μL of the solutions from the above intermediate plate to the wells of the plate prepared containing 80 μL of the culture medium and cells. The total dilution is 200 folds. • f. The cells were then incubated at 5% CO2, 37° C. for 72 hours. • g. Equilibrate the plate and its contents to room temperature for approximately 30 minutes. • h. Add 100 μL of CellTiter-Glo reagent to the assay plate • i. Mix contents for 10 minutes on an orbital shaker to induce cell lysis. • j. Allow the plate to incubate at room temperature for 10 minutes to stabilize luminescent signal, • k. Paste the clear bottom with white back seal and record luminescence with Varioskan LUX plate reader.
Inhibition % and IC50 value were calculated by the formula described below: […]

Experiment [3] concerns PI3Kα H1047R mutation cell line T-47D. As to the kind of experiment: Cell Proliferation IC50 Assay (CellTiter-Glo), T-47D. Conditions: Homo sapiens, T47D, 72 h, T47D (H1047R), 72 hours, CellTiter-Glo; read-out: IC50 (μM) T47D. In short, it runs like this:
as §1

The mark [4] stands for this setting: MDA-MB-453 (H1047R), 72 hours, CellTiter-Glo.

Structures are written as SMILES. Read-outs that look alike come from different tables or passages of the source.

As usually defined, the IC50 is the concentration at which inhibition is half-maximal.

Regarding `Cc1cc([C@H](C)Nc2ccccc2C(=O)O)c2oc(-c3ccc4c(c3)CN(C)C4=O)c(C)c(=O)c2c1` (single isomer, unassigned) [Example 20A], the IC50 in experiment [1], in experiment [2] (setting [4]) and in experiment [3] was over 10 µM in each case.
Take `Cc1cc(C(C)Nc2ccccc2C(=O)O)c2oc(-c3cc4cn(C)nc4cc3C)cc(=O)c2c1` (stereo not shown) [Example 61, 2-((1-(2-(2,6-dimethyl-21-indazol-5-yl)-6-methyl-4-oxo-4H-chromen-8-yl)ethyl)amino)benzoic acid]: the results for the IC50 in experiment [1] and in experiment [2] (setting [4]) were over 10 µM and 8.48 µM, respectively.
The like results for `Cc1cc(C(C)Nc2ccccc2C(=O)O)c2oc(-c3ccc4nn(C)cc4c3C)cc(=O)c2c1` (stereo not shown) [Example 62, 2-((1-(2-(2,4-dimethyl-2H-indazol-5-yl)-6-methyl-4-oxo-4H-chromen-8-yl)ethyl)amino)benzoic acid] were, in that order, over 10 µM and 0.47 µM.
For `Cc1cc(C(C)Nc2ccccc2C(=O)O)c2oc(-c3ccc(N4CCOCC4=O)cc3)cc(=O)c2c1` (stereo not shown) [Example 64, 2-((1-(6-methyl-4-oxo-2-(4-(3-oxomorpholino)phenyl)-4H-chromen-8-yl)ethyl)amino)benzoic acid] the same measures were over 10 µM and 1.9 µM.
For `CC(=O)N1CCN(c2ccc(-c3cc(=O)c4cc(C)cc(C(C)Nc5ccccc5C(=O)O)c4o3)cc2)CC1` (stereo not shown) [Example 65, 2-((1-(2-(4-(4-acetylpiperazin-1-yl)phenyl)-6-methyl-4-oxo-4H-chromen-8-yl)ethyl)amino)benzoic acid] the same measures were over 10 µM and 0.21 µM.
On to `Cc1cc(C(C)Nc2ccccc2C(=O)O)c2oc(-c3ccc(N4CCOCC4C)cc3)cc(=O)c2c1` (stereo not shown) [Example 66, 2-((1-(6-methyl-2-(4-(3-methylmorpholino)phenyl)-4-oxo-4H-chromen-8-yl)ethyl)amino)benzoic acid], for which the values for the IC50 in experiment [1] and in experiment [2] (setting [4]) were over 10 µM and 0.2 µM, respectively.
Consider `Cc1cc(C(C)Nc2ccccc2C(=O)O)c2oc(-c3ccc(N4CCOC(C)C4)cc3)cc(=O)c2c1` (stereo not shown) [Example 67, 2-((1-(6-methyl-2-(4-(2-methylmorpholino)phenyl)-4-oxo-4H-chromen-8-yl)ethyl)amino)benzoic acid], for which the values for the IC50 in experiment [1] and in experiment [2] (setting [4]) were over 10 µM and 0.2 µM, respectively.
For `Cc1cc(C(C)Nc2ccccc2C(=O)O)c2oc(-c3ccc4nn(C)nc4c3)cc(=O)c2c1` (stereo not shown) [Example 69, 2-((1-(6-methyl-2-(2-methyl-2H-benzo[d][1,2,3]triazol-5-yl)-4-oxo-4H-chromen-8-yl)ethyl)amino)benzoic acid] the same measures were over 10 µM and 1.06 µM.
For `Cc1cc(C(C)Nc2ccccc2C(=O)O)c2oc(-c3ccc4nn(C)cc4n3)cc(=O)c2c1` (stereo not shown) [Example 84, 2-((1-(6-methyl-2-(2-methyl-2H-pyrazolo[4,3-b]pyridin-5-yl)-4-oxo-4H-chromen-8-yl)ethyl)amino)benzoic acid] the same measures were over 10 µM and 0.26 µM.
In the case of `Cc1cc(C(C)Nc2ccccc2C(=O)O)c2oc(-c3ccc(N4CCN(C)CC4)cc3)c(C)c(=O)c2c1` (stereo not shown) [Example 90, 2-((1-(3,6-dimethyl-2-(4-(4-methylpiperazin-1-yl)phenyl)-4-oxo-4H-chromen-8-yl)ethyl)amino)benzoic acid], the values for the IC50 in experiment [1] and in experiment [2] (setting [4]) were over 10 µM and 0.09 µM, respectively.
Take `Cc1cc(C(C)Nc2ccccc2C(=O)O)c2oc(-c3ccc4nn(C)c(C)c4c3)cc(=O)c2c1` (stereo not shown) [Example 111, 2-((1-(2-(2,3-dimethyl-2H-indazol-5-yl)-6-methyl-4-oxo-4H-chromen-8-yl)ethyl)amino)benzoic acid]: the IC50 in experiment [1] was over 10 µM; in experiment [2] (setting [4]) it was 0.87 µM.
In the case of `Cc1cc([C@@H](C)Nc2ccccc2C(=O)O)c2oc(-c3ccc(N4CCN(C5COC5)CC4)cc3)c(C)c(=O)c2c1` [Example 118, (R)-2-((1-(3,6-dimethyl-2-(4-(4-(oxetan-3-yl)piperazin-1-yl)phenyl)-4-oxo-4H-chromen-8-yl)ethyl)amino)benzoic acid], the half-inhibitory concentration (IC50) in experiment [1] is 7.52 µM; in experiment [2] (MDA-MB-453, 72 h) it was 0.14 µM.
As to `Cc1cc(C(C)Nc2ccccc2C(=O)O)c2oc(-c3ccc4c(=O)n(C)ccc4c3)cc(=O)c2c1` (stereo not shown) [Example 120, 2-((1-(6-methyl-2-(2-methyl-1-oxo-1,2-dihydroisoquinolin-6-yl)-4-oxo-4H-chromen-8-yl)ethyl)amino)benzoic acid], the IC50 is over 10 µM in experiment [1] and 1.18 µM in experiment [2] (setting [4]).
The like results for `Cc1cc(C(C)Nc2ccccc2C(=O)O)c2oc(-c3ccc4c(=O)n(C)ncc4c3)cc(=O)c2c1` (stereo not shown) [Example 122, 2-((1-(6-methyl-2-(2-methyl-1-oxo-1,2-dihydrophthalazin-6-yl)-4-oxo-4H-chromen-8-yl)ethyl)amino)benzoic acid] were, in that order, over 10 µM and 0.56 µM.
Consider `Cc1cc(C(C)Nc2ccccc2C(=O)O)c2oc(C3CCN(c4ccccn4)CC3)c(C)c(=O)c2c1` (stereo not shown) [Example 124, 2-((1-(3,6-dimethyl-4-oxo-2-(1-(pyridin-2-yl)piperidin-4-yl)-4H-chromen-8-yl)ethyl)amino)benzoic acid], for which the IC50 is over 10 µM in experiment [1] and 0.5 µM in experiment [2] (MDA-MB-453, 72 h).
On to `Cc1cc(C(C)Nc2ccccc2C(=O)O)c2oc(C3CCN(c4cccnc4)CC3)c(C)c(=O)c2c1` (stereo not shown) [Example 125, 2-((1-(3,6-dimethyl-4-oxo-2-(1-(pyridin-3-yl)piperidin-4-yl)-4H-chromen-8-yl)ethyl)amino)benzoic acid], for which the values for the IC50 in experiment [1] and in experiment [2] (setting [4]) were over 10 µM and 0.4 µM, respectively.
As to `Cc1cc(C(C)Nc2ccccc2C(=O)O)c2oc(C3CCN(c4ccncc4)CC3)c(C)c(=O)c2c1` (stereo not shown) [Example 126, 2-((1-(3,6-dimethyl-4-oxo-2-(1-(pyridin-4-yl)piperidin-4-yl)-4H-chromen-8-yl)ethyl)amino)benzoic acid], the IC50 in experiment [1] is over 10 µM; in experiment [2] (setting [4]) it was 2.46 µM.
For `Cc1cc(C(C)Nc2ccccc2C(=O)O)c2oc(-c3ccc(S(C)(=O)=O)cc3)c(C)c(=O)c2c1` (stereo not shown) [Example 127, 2-((1-(3,6-dimethyl-2-(4-(methylsulfonyl)phenyl)-4-oxo-4H-chromen-8-yl)ethyl)amino)benzoic acid] the same measures were over 10 µM and over 10 µM.
For `Cc1cc(C(C)Nc2ccccc2C(=O)O)c2oc(-c3ccc(CN4CCOCC4)cc3)c(C)c(=O)c2c1` (stereo not shown) [Example 128, 2-((1-(3,6-dimethyl-2-(4-(morpholinomethyl)phenyl)-4-oxo-4H-chromen-8-yl)ethyl)amino)benzoic acid] the same measures were over 10 µM and 0.16 µM.
For `Cc1cc(C(C)Nc2ccccc2C(=O)O)c2oc(-c3ccc(C(=O)N4CCOCC4)cc3)c(C)c(=O)c2c1` (stereo not shown) [Example 129, 2-((1-(3,6-dimethyl-2-(4-(morpholine-4-carbonyl)phenyl)-4-oxo-4H-chromen-8-yl)ethyl)amino)benzoic acid] the same measures were over 10 µM and 0.26 µM.
On to `Cc1cc(C(C)Nc2ccccc2C(=O)O)c2oc(C3CCC(c4ccccc4)CC3)c(C)c(=O)c2c1` (stereo not shown) [Example 130, 2-((1-(3,6-dimethyl-4-oxo-2-(4-phenylcyclohexyl)-411-chromen-8-yl)ethyl)amino)benzoic acid], for which the IC50 in experiment [1] and in experiment [2] (setting [4]) was over 10 µM each time.
As for `Cc1cc(C(C)Nc2ccccc2C(=O)O)c2oc(-c3ccc(N4CCS(=O)(=O)CC4)cc3)c(C)c(=O)c2c1` (stereo not shown) [Example 132, 2-((1-(2-(4-(1,1-dioxidothiomorpholino)phenyl)-3,6-dimethyl-4-oxo-4H-chromen-8-yl)ethyl)amino)benzoic acid], the IC50 in experiment [1] was over 10 µM; in experiment [2] (setting [4]), 0.27 µM.
For `Cc1cc([C@@H](C)Nc2ccccc2C(=O)O)c2oc(-c3ccnc(N4CCOCC4)c3)c(C)c(=O)c2c1` [Example 133, (R)-2-((1-(3,6-dimethyl-2-(2-morpholinopyridin-4-yl)-4-oxo-411-chromen-8-yl)ethyl)amino)benzoic acid] the same measures were over 10 µM and 1.18 µM.
The like results for `Cc1cc([C@@H](C)Nc2ccccc2C(=O)O)c2oc(-c3ccnc(C(=O)N(C)C)c3)c(C)c(=O)c2c1` [Example 134, (R)-2-((1-(2-(2-(dimethylcarbamoyl)pyridin-4-yl)-3,6-dimethyl-4-oxo-4H-chromen-8-yl)ethyl)amino)benzoic acid] were, in that order, over 10 µM and 0.56 µM.

The values above are taken from patent US20250136568A1, “FUSED HETEROCYCLIC COMPOUNDS AS PI3KALPHA INHIBITORS” (Nanjing Zenshine Pharmaceuticals Co., Ltd., priority 2021, published 2025).
